By IC50 is commonly meant the concentration at which inhibition is half-maximal.

SMILES strings stand for the structures.

These results are taken from patent publication US20060205673A1, “2-Amino-3-hydroxy-4-tert-leucyl-amino-5-phenyl-pentanoic acid amide derivatives” (priority 2000, published 2006).

The test deals with T1, purified human placenta 20S proteasome (Homo sapiens, UniProt P28074).
T1 construct: 1 μl purified human placenta 20S proteasome; tissue Diabetes Forschungsinstitut, Düsseldorf, Germany; host or cells: human placenta
As to the kind of experiment: Inhibition of the chymotrypsin-like activity of the 20S proteasome (Suc-LLVY-AMC hydrolysis). The test is classed as biochemical. The note with it: Suc-LLVY-AMC substrate, 60 min preincubation at room temperature, Table 1. An excerpt:
It is based on the hydrolysis of the fluorogenic peptide Suc-LLVY-AMC (Succinyl-leucine-leucine-valine-tyrosine-7-amino-4-methyl-coumarin), which is cleaved exclusively at the Y-AMC bond by the 20S proteasome. Hydrolysis of this peptide is accompanied by an increase in fluorescence intensity [λex (excitation wavelength): 355 nm; λem (emission wavelength): 460 nm] due to release of the internally quenched […] fluorescence that accompanies diffusion apart of the hydrolysis product Suc-LLVY.
2 μl of a 1 mM solution of a test compound in DMSO (dimethylsulfoxide, 20 μM final concentration in the well) are preincubated for 60 min at room temperature in black 96-well microtiter plates together with a mixture of 1 μl purified human placenta 20S proteasome (Diabetes Forschungsinstitut, Düsseldorf, Germany; about 100 ng proteasome, depending on the proteasome preparation) and 47 μl buffer-Ca [5 mM CaCl2, 20 mM Tris/HCl (Tris-(hydroxymethyl)-amino-methane hydrochloride) pH 8.0]. 3 μl of a 2.67 mM solution of Suc-LLVY-AMC (Bachem, Switzerland) in DMSO (80 μM final concentration in the well) and 47 μl buffer-Ca are mixed and added. The resulting mixture is incubated for 3-24 h at 37° C. If desired, proteolysis of the substrate can be stopped by addition of 50 μl stop solution (100 mM monochloroacetic acid, 130 mM NaOH, 100 mM acetic acid, pH=4.3). The fluorescence is monitored with a FLUOROSKAN ASCENT™ microtiter plate reader.
To each measure series two control experiments have to be carried out:
1.) 0% value: 2 μl DMSO are used in the above described assay instead of 2 μl of a 1 mM solution of a test compound in DMSO and 48 μl buffer-Ca instead of a mixture of 47 μl buffer-Ca and 1 μl purified proteasome.
2.) 100% value: in the above described assay 2 μl DMSO are used instead of 2 μl of a 1 mM solution of the test compound in DMSO.
The IC50 value is defined as that concentration of a compound at which the remaining activity is 50%.

`COc1ccc(CNC(=O)[C@@H](NC(=O)[C@H](NCc2ccc(N(C)C)cc2)[C@H](O)[C@H](Cc2ccccc2)NC(=O)[C@@H](NC(=O)Cc2cccc3ccccc23)C(C)(C)C)C(C)C)c(O)c1` [Example 16, (2R,3R,4S)-2-(4-Dimethylamino-benzylamino)-4-[(S)-3,3-dimethyl-2-(2-naphthalen-1-yl-acetylamino)-butyrylamino]-3-hydroxy-5-phenyl-pentanoic acid [(S)-1-(2-hydroxy-4-methoxy-benzylcarbamoyl)-2-methyl-propyl]-amide] yielded an IC50 of 160 nM.
